Data: patent publication US12570662B2, “Substituted pyrrolo[1,2-b]pyridazines as bifunctional degraders of interleukin-1 receptor-associated kinases” (Nurix Therapeutics, Inc., priority 2021, dated 2026)

Biological target: T1, IRAK4 (Homo sapiens, UniProt Q9NWZ3)
T1 construct: C-terminal HiBiT-tagged Jurkat cells (polyclonal cell line or clone 8D5); endogenous in cells; host or cells: Jurkat cells (polyclonal cell line or clone 8D5), HiBiT-tagged
T1 sequence (Q9NWZ3 1-460): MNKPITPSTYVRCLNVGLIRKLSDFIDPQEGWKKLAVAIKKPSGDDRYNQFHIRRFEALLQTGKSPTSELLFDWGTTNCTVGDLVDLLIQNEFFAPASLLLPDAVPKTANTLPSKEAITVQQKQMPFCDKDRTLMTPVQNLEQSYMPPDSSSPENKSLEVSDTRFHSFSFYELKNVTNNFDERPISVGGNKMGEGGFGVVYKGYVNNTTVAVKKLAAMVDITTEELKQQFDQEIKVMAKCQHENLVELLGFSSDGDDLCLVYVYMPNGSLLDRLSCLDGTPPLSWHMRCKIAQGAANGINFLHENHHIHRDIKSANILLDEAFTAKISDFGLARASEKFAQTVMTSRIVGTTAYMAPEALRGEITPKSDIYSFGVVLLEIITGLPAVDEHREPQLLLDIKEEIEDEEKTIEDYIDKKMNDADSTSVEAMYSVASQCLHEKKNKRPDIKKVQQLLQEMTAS
Test: IRAK4 Degradation HiBit Assay
Assay type: cell-based
Conditions: C-terminal HiBiT-tagged Jurkat cells, 4 hrs incubation; for DC50: % IRAK4 remaining, four-parameter fit (IC50 used as DC50); for Dmax: from fit of % IRAK4 remaining, read-out: Dmax
Method in brief: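 Degradation was quantified by luminescence after adding lytic detection reagent containing LgBiT to HiBiT-tagged Jurkat cells (polyclonal or clone 8D5). Cells were treated 4 h at 32 °C across 11 concentrations from 10 μM to 0.1 nM final. Four-parameter curve fitting of % IRAK4 remaining versus DMSO gave DC50 and Dmax.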

Structure (SMILES) | DC50 [nM] | Dmax [%]
N#Cc1cnn2c(-c3cc(NC4CCOCC4)c(-c4nnc(N5CC6CCC(C5)N6CC5CCN(c6ccc([C@@H]7CCC(=O)NC7=O)cn6)CC5)s4)cn3)ccc2c1 (racemic) [Example 34, rac-7-[5-(5-{8-[(1-{5-[(3R)-2,6-dioxopiperidin-3-yl]pyridin-2-yl}piperidin-4-yl)methyl]-3,8-diazabicyclo[3.2.1]octan-3-yl}-1,3,4-thiadiazol-2-yl)-4-[(oxan-4-yl)amino]pyridin-2-yl]pyrrolo[1,2-b]pyridazine-3-carbonitrile] | 24 | 97
N#Cc1cnn2c(-c3cc(Nc4cnoc4)c(-c4nnc(N5CC6CCC(C5)N6CC5CCN(c6ccc([C@@H]7CCC(=O)NC7=O)cn6)CC5)s4)cn3)ccc2c1 (single isomer, unassigned) [Example 136] | 25 | 113
C[C@H](C#N)Nc1cc(-c2ccc3cc(C#N)cnn23)ncc1-c1nnc(N2CC3CCC(C2)N3CC2CCN(c3ccc([C@@H]4CCC(=O)NC4=O)cn3)CC2)s1 (single isomer, unassigned) [Example 135] | 5 | 108
CNc1cc(-c2ccc3cc(C#N)cnn23)ncc1-c1nnc(N2CC3CCC(C2)N3C(=O)C2CCN(c3ccc([C@H]4CCC(=O)NC4=O)cn3)CC2)s1 (racemic) [Example 46, rac-7-(5-{5-[8-(1-{5-[(3R)-2,6-dioxopiperidin-3-yl]pyridin-2-yl}piperidine-4-carbonyl)-3,8-diazabicyclo[3.2.1]octan-3-yl]-1,3,4-thiadiazol-2-yl}-4-(methylamino)pyridin-2-yl)pyrrolo[1,2-b]pyridazine-3-carbonitrile] | 6 | 111
COC[C@@H](C)Nc1cc(-c2ccc3cc(C#N)cnn23)ncc1-c1nnc(N2CC3CCC(C2)N3CC2CCN(c3ccc(C4CCC(=O)NC4=O)cn3)CC2)s1 (mixture of isomers) [Example 114, 7-[5-(5-{8-[(1-{5-[(3RS)-2,6-dioxopiperidin-3-yl]pyridin-2-yl}piperidin-4-yl)methyl]-3,8-diazabicyclo[3.2.1]octan-3-yl}-1,3,4-thiadiazol-2-yl)-4-{[(2R)-1-methoxypropan-2-yl]amino}pyridin-2-yl]pyrrolo[1,2-b]pyridazine-3-carbonitrile] | 100 | 110
CC(C)Nc1cc(-c2ccc3cc(C#N)cnn23)ncc1-c1nnc(N2CC3CCC(C2)N3CC2CCN(c3ccc([C@@H]4CCC(=O)NC4=O)cn3)CC2)s1 (single isomer, unassigned) [Example 122] | 58 | 105
C[C@H](C#N)Nc1cc(-c2ccc3cc(C#N)cnn23)ncc1-c1nnc(N2CCN(CC3CCN(c4ccc(C5CCC(=O)NC5=O)cc4)CC3)CC2)s1 (mixture of isomers) [Example 97, 7-(4-{[(1R)-1-cyanoethyl]amino}-5-(5-{4-[(1-{4-[(3RS)-2,6-dioxopiperidin-3-yl]phenyl}piperidin-4-yl)methyl]piperazin-1-yl}-1,3,4-thiadiazol-2-yl)pyridin-2-yl)pyrrolo[1,2-b]pyridazine-3-carbonitrile] | 18 | 111
N#Cc1cnn2c(-c3cc(NC4CCOCC4)c(-c4nnc(C56CCC(CN7CCc8cc(C9CCC(=O)NC9=O)ccc8C7)(CC5)CC6)s4)cn3)ccc2c1 (racemic) [Example 90, rac-7-(5-{5-[4-({6-[(3R)-2,6-dioxopiperidin-3-yl]-1,2,3,4-tetrahydroisoquinolin-2-yl}methyl)bicyclo[2.2.2]octan-1-yl]-1,3,4-thiadiazol-2-yl}-4-[(oxan-4-yl)amino]pyridin-2-yl)pyrrolo[1,2-b]pyridazine-3-carbonitrile] | 64 | 25
C[C@@H](C#N)Nc1cc(-c2ccc3cc(C#N)cnn23)ncc1-c1nnc(N2CC3CCC(C2)N3CC2CCN(c3ccc([C@@H]4CCC(=O)NC4=O)cn3)CC2)s1 (single isomer, unassigned) [Example 145] | 22 | 113

Now from value to molecule:

DC50 [nM] | Dmax [%] | Structure (SMILES)
14 | 111 | N#Cc1cnn2c(-c3cc(NC4CCOCC4)c(-c4nnc(N5CCN(CC6CCN(c7ccc(C8CCC(=O)NC8=O)cn7)CC6)CC5)s4)cn3)ccc2c1 (racemic) [Example 43, 7-(5-{5-[4-({1-[5-(2,6-dioxopiperidin-3-yl)pyridin-2-yl]piperidin-4-yl}methyl)piperazin-1-yl]-1,3,4-thiadiazol-2-yl}-4-(oxan-4-ylamino)pyridin-2-yl)pyrrolo[1,2-b]pyridazine-3-carbonitrile]
42 | 112 | CCNc1cc(-c2ccc3cc(C#N)cnn23)ncc1-c1nnc(N2CCN(CC3CCN(c4ccc(C5CCC(=O)NC5=O)cc4)CC3)CC2)s1 (racemic) [Example 70, rac-7-[5-(5-{4-[(1-{4-[(3R)-2,6-dioxopiperidin-3-yl]phenyl}piperidin-4-yl)methyl]piperazin-1-yl}-1,3,4-thiadiazol-2-yl)-4-(ethylamino)pyridin-2-yl]pyrrolo[1,2-b]pyridazine-3-carbonitrile]
75 | 106 | N#Cc1cnn2c(-c3cc(NC4CCOCC4)c(-c4nnc(N5CCN(CC6CCN(c7ccc([C@@H]8CCC(=O)NC8=O)nc7)CC6)CC5)s4)cn3)ccc2c1 (single isomer, unassigned) [Example 117]
7 | 120 | N#CCNc1cc(-c2ccc3cc(C#N)cnn23)ncc1-c1nnc(N2CCN(CC3CCN(c4ccc(C5CCC(=O)NC5=O)cn4)CC3)CC2)s1 (racemic) [Example 59, rac-7-{4-[(cyanomethyl)amino]-5-(5-{4-[(1-{5-[(3R)-2,6-dioxopiperidin-3-yl]pyridin-2-yl}piperidin-4-yl)methyl]piperazin-1-yl}-1,3,4-thiadiazol-2-yl)pyridin-2-yl}pyrrolo[1,2-b]pyridazine-3-carbonitrile]
30 | 111 | N#Cc1cnn2c(-c3cc(NC4CC4)c(-c4nnc(N5CCN(CC6CCN(c7ccc([C@@H]8CCC(=O)NC8=O)cn7)CC6)CC5)s4)cn3)ccc2c1 (single isomer, unassigned) [Example 119]
187 | 103 | CCNc1cc(-c2ccc3cc(C#N)cnn23)ncc1-c1nnc(N2CCN(CC3CCN(c4ccc(C5CCC(=O)NC5=O)cn4)CC3)CC2)s1 (racemic) [Example 68, rac-7-[5-(5-{4-[(1-{5-[(3R)-2,6-dioxopiperidin-3-yl]pyridin-2-yl}piperidin-4-yl)methyl]piperazin-1-yl}-1,3,4-thiadiazol-2-yl)-4-(ethylamino)pyridin-2-yl]pyrrolo[1,2-b]pyridazine-3-carbonitrile]
11 | 115 | N#Cc1cnn2c(-c3cc(NC4CCOCC4)c(-c4nnc(N5CC6(CCN(CC7CCN(c8ccc(C9CCC(=O)NC9=O)cn8)CC7)CC6)C5)s4)cn3)ccc2c1 (racemic) [Example 88, rac-7-[5-(5-{7-[(1-{5-[(3R)-2,6-dioxopiperidin-3-yl]pyridin-2-yl}piperidin-4-yl)methyl]-2,7-diazaspiro[3.5]nonan-2-yl}-1,3,4-thiadiazol-2-yl)-4-[(oxan-4-yl)amino]pyridin-2-yl]pyrrolo[1,2-b]pyridazine-3-carbonitrile]
19 | 114 | CNc1cc(-c2ccc3cc(C#N)cnn23)ncc1-c1nnc(N2CC3(CCN(C(=O)C4CCN(c5ccc(C6CCC(=O)NC6=O)cn5)CC4)CC3)C2)s1 (racemic) [Example 40, rac-7-(5-{5-[7-(1-{5-[(3R)-2,6-dioxopiperidin-3-yl]pyridin-2-yl}piperidine-4-carbonyl)-2,7-diazaspiro[3.5]nonan-2-yl]-1,3,4-thiadiazol-2-yl}-4-(methylamino)pyridin-2-yl)pyrrolo[1,2-b]pyridazine-3-carbonitrile]
160 | 102 | CC(C)Nc1cc(-c2ccc3cc(C#N)cnn23)ncc1-c1nnc(N2CCN(CC3CCN(c4ccc(C5CCC(=O)NC5=O)cn4)CC3)CC2)s1 (racemic) [Example 56, rac-7-[5-(5-{4-[(1-{5-[(3R)-2,6-dioxopiperidin-3-yl]pyridin-2-yl}piperidin-4-yl)methyl]piperazin-1-yl}-1,3,4-thiadiazol-2-yl)-4-[(propan-2-yl)amino]pyridin-2-yl]pyrrolo[1,2-b]pyridazine-3-carbonitrile]
129 | 17 | CC(C)Nc1cc(-c2ccc3cc(C#N)cnn23)ncc1-c1nnc(N2CCN(CC3CCN(c4ccc(C5CCC(=O)NC5=O)cn4)CC3)C3(CC3)C2)s1 (racemic) [Example 7, rac-7-[5-(5-{4-[(1-{5-[(3R)-2,6-dioxopiperidin-3-yl]pyridin-2-yl}piperidin-4-yl)methyl]-4,7-diazaspiro[2.5]octan-7-yl}-1,3,4-thiadiazol-2-yl)-4-[(propan-2-yl)amino]pyridin-2-yl]pyrrolo[1,2-b]pyridazine-3-carbonitrile]
